Where two headings read alike, the source gives them in different places.
Columns and labels:
[1] = test system: human monocytic cell line U937; assay: Human U937 cellular necroptosis assay (TNFalpha + z-VAD-FMK, Cell Titer-Glo viability); format: cell-based; settings: U937 cells, 25 ng/mL human TNFalpha + 25 μM z-VAD-FMK, read-out: hU937 Avg IC50
Method in brief: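 Readout is CellTiter-Glo 2.0 luminescence after 22 h at 37° C with compound, in cells triggered by human TNFalpha (25 ng/mL) and z-VAD-FMK (25 μM) in phenol red-free RPMI/10% FBS. Values are run-averaged IC50s from a four-parameter logistic curve.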

RIPK1 = RIPK1 (Homo sapiens (Human), UniProt Q13546); assay: ADP-Glo kinase assay (RIPK1 activity, conversion of ATP to ADP); format: biochemical; settings: 5 nM RIPK1, 50 μM ATP, 6 h reaction; read-out: RIPK1 Enzyme Avg IC50
Chain of RIPK1 (Q13546 1-327): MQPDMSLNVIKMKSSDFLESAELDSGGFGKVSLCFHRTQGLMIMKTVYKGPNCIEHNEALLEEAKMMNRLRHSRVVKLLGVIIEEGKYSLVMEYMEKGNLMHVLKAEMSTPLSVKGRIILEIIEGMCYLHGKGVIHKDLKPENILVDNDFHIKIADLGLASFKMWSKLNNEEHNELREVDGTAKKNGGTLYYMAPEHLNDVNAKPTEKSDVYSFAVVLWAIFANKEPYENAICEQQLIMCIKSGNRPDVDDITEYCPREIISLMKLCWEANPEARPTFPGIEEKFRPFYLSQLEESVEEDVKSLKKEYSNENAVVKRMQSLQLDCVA
Method in brief: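 RIPK1 (5 nM final) was preincubated 10 min at rt with 1:3-diluted compounds in HEPES pH 7.5/MgCl2/DTT/BSA/CHAPS buffer. ATP (50 μM final) was then added for 6 h, and ADP formed was read by ADP-Glo luminescence. IC50 values came from four-parameter logistic fitting.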

Row | SMILES | IC50 ([1]; Homo sapiens, U-937, 22 h) | IC50 (RIPK1) | IC50 ([1]; 22 h)
1 | COc1ccc2cnn(CC34CC(C(=O)N5N=CCC5c5cc(F)cc(F)c5)(C3)C4)c2c1 (stereo not drawn) [Example 73, (5-(3,5-difluorophenyl)-4,5-dihydro-1H-pyrazol-1-yl)(3-((6-methoxy-1H-indazol-1-yl)methyl)bicyclo[1.1.1]-pentan-1-yl)methanone] | 527 nM | 111 nM | 
2 | N#Cc1ccc2c(cnn2CC23CC(C(=O)N4CCC4c4ccccc4F)(C2)C3)c1 (stereo not drawn) [Example 248, 1-((3-(2-(2-fluorophenyl)-azetidine-1-carbonyl)bicyclo-[1.1.1]pentan-1-yl)methyl)-1H-indazole-5-carbonitrile] | 186 nM | 23 nM | 
3 | N#CCC12CC(C(=O)N3N=CCC3c3cc(F)cc(F)c3)(C1)C2 (stereo not drawn) [Example 18, 2-(3-(5-(3,5-Difluorophenyl)-4,5-dihydro-1H-pyrazole-1-carbonyl)-bicyclo[1.1.1]pentan-1-yl)acetonitrile] | 284 nM | 70 nM | 
4 | COc1cnn(CC23CC(C(=O)N4N=CCC4c4cc(F)cc(F)c4)(C2)C3)c1 (stereo not drawn) [Example 160, (5-(3,5-difluorophenyl)-4,5-dihydro-1H-pyrazol-1-yl)(3-((4-methoxy-1H-pyrazol-1-yl)methyl)bicyclo[1.1.1]-pentan-1-yl)methanone] | 404 nM | 82 nM | 
5 | O=C(N1CC(F)CC1c1cccc(F)c1)C12CC(Cn3ncc4cc(F)ccc43)(C1)C2 (stereo not drawn) [Example 27, (3-((5-Fluoro-1H-indazol-1-yl)methyl)bicyclo[1.1.1]pentan-1-yl)(4-fluoro-2-(3-fluorophenyl)pyrrolidin-1-yl)methanone] | 167 nM | 14 nM | 
6 | N#Cc1ccc2c(cnn2CC23CC(C(=O)N4CCC4c4cccs4)(C2)C3)c1 (stereo not drawn) [Example 255, 1-((3-(2-(thiophen-2-yl)-azetidine-1-carbonyl)bicyclo-[1.1.1]pentan-1-yl)methyl)-1H-indazole-5-carbonitrile] | 550 nM | 49 nM | 
7 | O=C(N1N=CCC1c1cc(F)cc(F)c1)C12CC(Cn3ncc4c3CCC4)(C1)C2 (stereo not drawn) [Example 145, (5-(3,5-difluorophenyl)-4,5-dihydro-1H-pyrazol-1-yl)(3-((5,6-dihydrocyclopenta[c]-pyrazol-1(4H)-yl)methyl)-bicyclo[1.1.1]pentan-1-yl)methanone] | 701 nM | 169 nM | 
8 | Cc1c2ccccc2nn1CC12CC(C(=O)N3N=CCC3c3cc(F)cc(F)c3)(C1)C2 (stereo not drawn) [Example 152, (5-(3,5-difluorophenyl)-4,5-dihydro-1H-pyrazol-1-yl)(3-((3-methyl-2H-indazol-2-yl)-methyl)bicyclo[1.1.1]pentan-1-yl)methanone] | 363 nM | 98 nM | 
9 | N#Cc1ccc2c(cnn2CC23CC(C(=O)N4CCC4c4cccc(F)c4)(C2)C3)c1 (stereo not drawn) [Example 252, 1-((3-(2-(3-fluorophenyl)-azetidine-1-carbonyl)bicyclo-[1.1.1]pentan-1-yl)methyl)-1H-indazole-5-carbonitrile] | 436 nM | 43 nM | 
10 | Cn1cc(-c2cc(OCC34CC(C(=O)N5CC(F)CC5c5cccc(F)c5)(C3)C4)ncn2)cn1 (single isomer, unassigned) [Example 29, (4-Fluoro-2-(3-fluorophenyl)pyrrolidin-1-yl)(3-(((6-(1-methyl-1H-pyrazol-4-yl)pyrimidin-4-yl)oxy)methyl)bicyclo[1.1.1]pentan-1-yl)methanone] | 647 nM | 213 nM | 
11 | N#Cc1ccc2c(cnn2CC23CC(C(=O)N4CCC4c4ccc(F)cc4)(C2)C3)c1 (stereo not drawn) [Example 234, 1-((3-(2-(4-fluorophenyl)-azetidine-1-carbonyl)bicyclo-[1.1.1]pentan-1-yl)methyl)-1H-indazole-5-carbonitrile] | 1970 nM | 211 nM | 
12 | Cc1cnn(CC23CC(C(=O)N4N=CCC4c4cc(F)cc(F)c4)(C2)C3)c1 (stereo not drawn) [Example 74, (5-(3,5-difluorophenyl)-4,5-dihydro-1H-pyrazol-1-yl)(3-((4-methyl-1H-pyrazol-1-yl)-methyl)bicyclo[1.1.1]pentan-1-yl)methanone] | 514 nM | 124 nM | 
13 | N#Cc1ccc(OCC23CC(C(=O)N4N=CCC4c4cc(F)cc(F)c4)(C2)C3)c(F)c1 (stereo not drawn) [Example 333, 4-((3-(5-(3,5-difluorophenyl)-4,5-dihydro-1H-pyrazole-1-carbonyl)bicyclo[1.1.1]pentan-1-yl)methoxy)-3-fluoro-benzonitrile] | 36 nM | 16 nM | 
14 | N#Cc1cccc2cn(CC34CC(C(=O)N5N=CCC5c5cc(F)cc(F)c5)(C3)C4)nc12 (stereo not drawn) [Example 142, 2-((3-(5-(3,5-difluorophenyl)-4,5-dihydro-1H-pyrazole-1-carbonyl)bicyclo[1.1.1]pentan-1-yl)methyl)-2H-indazole-7-carbonitrile] | 750 nM | 79 nM | 
15 | N#Cc1cnn(CC23CC(C(=O)N4N=CCC4c4cncc(F)c4)(C2)C3)c1 (stereo not drawn) [Example 166, 1-((3-(5-(5-fluoropyridin-3-yl)-4,5-dihydro-1H-pyrazole-1-carbonyl)bicyclo[1.1.1]-pentan-1-yl)methyl)-1H-pyrazole-4-carbonitrile] | 1970 nM | 308 nM | 
16 | Cc1ccc(C2CC=NN2C(=O)C23CC(Cn4cc(C#N)cn4)(C2)C3)nc1 (stereo not drawn) [Example 171, 1-((3-(5-(5-methylpyridin-2-yl)-4,5-dihydro-1H-pyrazole-1-carbonyl)bicyclo[1.1.1]-pentan-1-yl)methyl)-1H-pyrazole-4-carbonitiile] | 3700 nM | 670 nM | 
17 | O=C(N1N=CCC1c1cc(F)cc(F)c1)C12CC(Cn3cc4c(F)cccc4n3)(C1)C2 (stereo not drawn) [Example 21, (5-(3,5-Difluorophenyl)-4,5-dihydro-1H-pyrazol-1-yl)(3-((4-fluoro-2H-indazol-2-yl)methyl)bicyclo[1.1.1]pentan-1-yl)methanone] | 114 nM | 70 nM | 
18 | O=C(N1N=CCC1c1cc(F)cc(F)c1)C12CC(Cn3cc4cccc(Cl)c4n3)(C1)C2 (stereo not drawn) [Example 58, (3-((7-chloro-2H-indazol-2-yl)methyl)bicyclo[1.1.1]-pentan-1-yl)(5-(3,5-difluoro-phenyl)-4,5-dihydro-1H-pyrazol-1-yl)methanone] | 160 nM | 34 nM | 
19 | O=C(N1N=CCC1c1cc(F)cc(F)c1)C12CC(Cn3ncc4ncccc43)(C1)C2 (stereo not drawn) [Example 65, (3-((1H-pyrazolo[4,3-b]-pyridin-1-yl)methyl)bicyclo-[1.1.1]pentan-1-yl)(5-(3,5-difluorophenyl)-4,5-dihydro-1H-pyrazol-1-yl)methanone] |  | 11 nM | 44 nM
20 | N#Cc1ccc(OCC23CC(C(=O)N4N=CCC4c4cc(F)cc(F)c4)(C2)C3)c(Cl)c1 (stereo not drawn) [Example 202, 3-Chloro-4-((3-(5-(3,5-difluorophenyl)-4,5-dihydro-1H-pyrazole-1-carbonyl)bicyclo[1.1.1]pentan-1-yl)methoxy)benzonitrile] | 18 nM | 32 nM | 
21 | O=C(N1N=CCC1c1cc(F)cc(F)c1)C12CC(Cn3ncc4cncc(Cl)c43)(C1)C2 (stereo not drawn) [Example 68, (3-((7-chloro-1H-pyrazolo-[4,3-c]pyridin-1-yl)methyl)-bicyclo[1.1.1]pentan-1-yl)(5-(3,5-difluorophenyl)-4,5-dihydro-1H-pyrazol-1-yl)methanone] | 34 nM | 20 nM | 
